Experimental findings from US20040219208A1, “Sustained-release medicines” (priority 2001, published 2004) are described below.

The data set can be described thus: Drug concentration in plasma of rat after subcutaneous administration of microcapsule. In kind it is in vivo. The note with it: sc, 25 mg microcapsule of Example 1, subcutaneous at rear neck, 9 week old male SD rat, plasma from tail vein, n = 4; for concentration at 1 week: after 1 week; for concentration at 2 weeks: after 2 weeks; for concentration at 3 weeks: after 3 weeks; for concentration at 1 day: after 1 day. The method, then: 25 mg of the microcapsule obtained in Example 1 was dispersed in 0.1 mL of dispersing medium (a solution in which 5 mg of sodium carboxymethylcellulose, 1 mg of Polysorbate 80 and 50 mg of mannitol were dissolved in 1 mL of distilled water), and this was subcutaneously administered to a 9 week old male SD rat with 23G injection needle at a rear neck part. The concentrations of drugs in plasma obtained by taking from a tail vein with time after administration were measured.

Regarding `CCc1ccc(CCOc2ccc(CC3SC(=O)NC3=O)cc2)nc1` (centres unmarked) [actos], the concentration at 1 week was 226 ng/mL, the concentration at 2 weeks was 155 ng/mL, the concentration at 3 weeks is 30 ng/mL and the concentration at 1 day is 313 ng/mL.

On to `CCOc1nc2cccc(C(=O)O)c2n1Cc1ccc(-c2ccccc2-c2nnn[nH]2)cc1` [Compound B, 2-ethoxy-1-[[2′-(1H-tetrazol-5-yl)biphenyl-4-yl]methyl]benzimidazole-7-carboxylic acid], for which the concentration at 1 week worked out at 238 ng/mL, the concentration at 2 weeks was found to be 94 ng/mL, the concentration at 3 weeks was 4 ng/mL and the concentration at 1 day is 170 ng/mL.
